Test results from PubChem BioAssay AID248 (DTP/NCI, 2004).
Values joined by “and” are separate entries in the source; they are usually repeats but may differ in a detail not shown here. Identical values can stand only once. Inconclusive results and toxic doses are left out. Cut-off read from the data, not from the text of the source: active = T/C of 150% or more; inactive = T/C below 125%.

Tested on: L1210 leukemia ip in BDF1 mice, survival T/C
Assay: NCI In Vivo Anticancer Drug Screen. Data for tumor model L1210 Leukemia (intraperitoneal) in B6D2F1 (BDF1) mice
Conditions: endpoint: mean survival time, higher = longer survival
How it was run: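 In this screen, tumor-bearing mice given compound are compared to those given vehicle, and their survival values are reported as a treated-to-control quotient.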

[1] = dose: 6.25 mg/kg/injection, schedule: Q01DX009 (ip), vehicle: saline
[2] = dose: 12.5 mg/kg/injection, schedule: Q01DX009 (ip), vehicle: saline
[3] = dose: 25.0 mg/kg/injection, schedule: Q01DX009 (ip), vehicle: saline
[4] = dose: 25.0 mg/kg/injection, schedule: Q04DX003 (ip), vehicle: saline
[5] = dose: 100.0 mg/kg/injection, schedule: Q04DX003 (ip), vehicle: saline with Tween-80
[6] = dose: 200.0 mg/kg/injection, schedule: Q04DX003 (ip), vehicle: saline with Tween-80
[7] = dose: 100.0 mg/kg/injection, schedule: Q01DX009 (ip), vehicle: Klucel (hydroxypropylcellulose) (HPC)
[8] = dose: 100.0 mg/kg/injection, schedule: Q04DX003 (ip), vehicle: Klucel (hydroxypropylcellulose) (HPC)
[9] = dose: 200.0 mg/kg/injection, schedule: Q01DX009 (ip), vehicle: Klucel (hydroxypropylcellulose) (HPC)
[10] = dose: 200.0 mg/kg/injection, schedule: Q04DX003 (ip), vehicle: Klucel (hydroxypropylcellulose) (HPC)
[11] = dose: 400.0 mg/kg/injection, schedule: Q01DX009 (ip), vehicle: Klucel (hydroxypropylcellulose) (HPC)
[12] = dose: 400.0 mg/kg/injection, schedule: Q04DX003 (ip), vehicle: Klucel (hydroxypropylcellulose) (HPC)
[13] = dose: 100.0 mg/kg/injection, schedule: Q01DX001 (ip), vehicle: Klucel (hydroxypropylcellulose) (HPC)
[14] = dose: 200.0 mg/kg/injection, schedule: Q01DX001 (ip), vehicle: Klucel (hydroxypropylcellulose) (HPC)

Measured: T/C

CCc1ccc(/C=C/c2ccc(O)c3ncccc23)[n+](C)c1
inactive: dose: 2.0 mg/kg/injection, schedule: Q01DX015 (ip), vehicle: carboxymethylcellulose (CMC) 115 % of control | dose: 2.0 mg/kg/injection, schedule: Q03HX008 (ip), vehicle: other 94 % of control | dose: 2.0 mg/kg/injection, schedule: Q03HX016 (ip), vehicle: other 90 % of control | dose: 2.0 mg/kg/injection, schedule: Q03HX024 (ip), vehicle: other 98 % of control | dose: 4.0 mg/kg/injection, schedule: Q01DX009 (ip), vehicle: carboxymethylcellulose (CMC) 120 % of control | dose: 4.0 mg/kg/injection, schedule: Q01DX009 (ip), vehicle: other 97 % of control | dose: 4.0 mg/kg/injection, schedule: Q01DX015 (ip), vehicle: carboxymethylcellulose (CMC) 108 % of control | dose: 4.0 mg/kg/injection, schedule: Q03HX008 (ip), vehicle: other 98 % of control | dose: 4.0 mg/kg/injection, schedule: Q03HX016 (ip), vehicle: other 96 % of control | dose: 4.0 mg/kg/injection, schedule: Q03HX024 (ip), vehicle: other 97 % of control | dose: 5.0 mg/kg/injection, schedule: Q01DX001 (ip), vehicle: carboxymethylcellulose (CMC) 94 % of control | [1] 108 % of control | dose: 6.25 mg/kg/injection, schedule: Q04DX003 (ip), vehicle: saline 107 % of control | dose: 8.0 mg/kg/injection, schedule: Q01DX009 (ip), vehicle: other 106 % of control | dose: 8.0 mg/kg/injection, schedule: Q01DX015 (ip), vehicle: carboxymethylcellulose (CMC) 113 % of control | dose: 8.0 mg/kg/injection, schedule: Q03HX008 (ip), vehicle: other 104 % of control | dose: 8.0 mg/kg/injection, schedule: Q03HX016 (ip), vehicle: other 103 % of control | dose: 8.0 mg/kg/injection, schedule: Q03HX024 (ip), vehicle: other 108 % of control | dose: 10.0 mg/kg/injection, schedule: Q01DX001 (ip), vehicle: carboxymethylcellulose (CMC) 100 % of control | dose: 12.5 mg/kg/injection, schedule: Q01DX001 (ip), vehicle: saline 104 % of control | [2] 124 % of control | dose: 12.5 mg/kg/injection, schedule: Q04DX003 (ip), vehicle: saline 110 % of control | dose: 16.0 mg/kg/injection, schedule: Q01DX001 (ip), vehicle: other 107 % of control | dose: 16.0 mg/kg/injection, schedule: Q01DX009 (ip), vehicle: other 120 % of control | dose: 16.0 mg/kg/injection, schedule: Q03HX008 (ip), vehicle: other 112 % of control | dose: 16.0 mg/kg/injection, schedule: Q03HX016 (ip), vehicle: other 110 % of control | dose: 16.0 mg/kg/injection, schedule: Q03HX024 (ip), vehicle: other 122 % of control | dose: 16.0 mg/kg/injection, schedule: Q04DX003 (ip), vehicle: other 100 % of control | dose: 16.0 mg/kg/injection, schedule: Q08DX002 (ip), vehicle: other 97 % of control | dose: 20.0 mg/kg/injection, schedule: Q01DX001 (ip), vehicle: carboxymethylcellulose (CMC) 112 % of control | dose: 25.0 mg/kg/injection, schedule: Q01DX001 (ip), vehicle: saline 114 % of control | [3] 117 % of control | [4] 110 % of control | dose: 32.0 mg/kg/injection, schedule: Q01DX001 (ip), vehicle: other 102 % of control | dose: 32.0 mg/kg/injection, schedule: Q01DX009 (ip), vehicle: other 123 % of control | dose: 32.0 mg/kg/injection, schedule: Q01DX015 (ip), vehicle: carboxymethylcellulose (CMC) 121 % of control | dose: 32.0 mg/kg/injection, schedule: Q04DX003 (ip), vehicle: other 96 % of control | dose: 32.0 mg/kg/injection, schedule: Q08DX002 (ip), vehicle: other 96 % of control | dose: 40.0 mg/kg/injection, schedule: Q01DX001 (ip), vehicle: carboxymethylcellulose (CMC) 112 % of control

O=C(C(=Nc1ccccc1)c1ccccc1)c1ccccc1
inactive: [5] 96 % of control | [6] 94 % of control

C/C(=C\c1ccccc1)C(=O)c1ccc(-c2ccccc2)cc1
inactive: [7] 97 % of control | [8] 100 % of control | [9] 93 % of control | [10] 100 % of control | [11] 92 % of control | [12] 93 % of control

COC1OC(COS(C)(=O)=O)C(O)C(OS(C)(=O)=O)C1OS(C)(=O)=O (centres undefined)
inactive: dose: 50.0 mg/kg/injection, schedule: Q04DX002 (ip), vehicle: Klucel (hydroxypropylcellulose) (HPC) 93 % of control | dose: 100.0 mg/kg/injection, schedule: Q04DX002 (ip), vehicle: Klucel (hydroxypropylcellulose) (HPC) 93 % of control | dose: 200.0 mg/kg/injection, schedule: Q04DX002 (ip), vehicle: Klucel (hydroxypropylcellulose) (HPC) 101 % of control

CNCCCC1c2ccccc2C=Cc2ccccc21
inactive: dose: 3.12 mg/kg/injection, schedule: Q01DX009 (ip), vehicle: saline 100 % of control | [1] 96 % of control | [2] 101 % of control | [3] 100 % of control | [4] 90 % of control | dose: 50.0 mg/kg/injection, schedule: Q04DX003 (ip), vehicle: saline 101 % of control

C1=CC2CC1CC2CNCCN1CC1 (centres undefined)
inactive: dose: 10.0 mg/kg/injection, schedule: Q04DX003 (ip), vehicle: saline 106 % of control | dose: 20.0 mg/kg/injection, schedule: Q04DX003 (ip), vehicle: saline 87 % of control

NC(CSC1(c2ccc(Cl)cc2)c2ccccc2-c2ccccc21)C(=O)O (centres undefined)
inactive: dose: 1.56 mg/kg/injection, schedule: Q01DX009 (ip), vehicle: other 98 % of control | dose: 3.12 mg/kg/injection, schedule: Q01DX009 (ip), vehicle: other 106 % of control | dose: 6.25 mg/kg/injection, schedule: Q01DX009 (ip), vehicle: other 100 % of control | dose: 12.5 mg/kg/injection, schedule: Q01DX009 (ip), vehicle: other 98 % of control and 105 % of control | dose: 25.0 mg/kg/injection, schedule: Q01DX009 (ip), vehicle: other 95 % of control | dose: 50.0 mg/kg/injection, schedule: Q01DX009 (ip), vehicle: other 100 % of control | dose: 100.0 mg/kg/injection, schedule: Q01DX009 (ip), vehicle: other 97 % of control

COC(=O)c1ccc[n+](Cc2c(Cl)cccc2Cl)c1
inactive: dose: 75.0 mg/kg/injection, schedule: Q01DX001 (ip), vehicle: saline 95 % of control | dose: 150.0 mg/kg/injection, schedule: Q01DX001 (ip), vehicle: saline 96 % of control

Cn1c(=O)c2[nH]cnc2n(C)c1=O (tested in a mixture with another compound)
inactive: [5] 97 % of control | [6] 96 % of control

CSCC1OC(n2nnc3c(N)ncnc32)C(O)C1O (centres undefined)
inactive: [13] 100 % of control | [14] 103 % of control

Cn1c[n+](C)ccc1=O
inactive: dose: 100.0 mg/kg/injection, schedule: Q01DX009 (ip), vehicle: water 87 % of control | dose: 100.0 mg/kg/injection, schedule: Q04DX003 (ip), vehicle: water 111 % of control | dose: 200.0 mg/kg/injection, schedule: Q01DX009 (ip), vehicle: water 104 % of control | dose: 200.0 mg/kg/injection, schedule: Q04DX003 (ip), vehicle: water 106 % of control | dose: 400.0 mg/kg/injection, schedule: Q04DX003 (ip), vehicle: water 111 % of control

Cc1ccc(C(=O)/C=C2/SS/C(=C/C(=O)c3ccc(C)cc3)S2)cc1
inactive: dose: 50.0 mg/kg/injection, schedule: Q04DX003 (ip), vehicle: Klucel (hydroxypropylcellulose) (HPC) 100 % of control | [13] 92 % of control | [8] 97 % of control | [14] 95 % of control | [10] 106 % of control | dose: 400.0 mg/kg/injection, schedule: Q01DX001 (ip), vehicle: Klucel (hydroxypropylcellulose) (HPC) 98 % of control | [12] 110 % of control

CCCCCCCCCCCCCCCCCC(N)=O
inactive: [7] 87 % of control | [8] 102 % of control | [9] 87 % of control | [10] 95 % of control | [11] 117 % of control | [12] 96 % of control
